The source of these data is patent US20050019836A1, “Bioanalytical reagent, method for production thereof, sensor platforms and detection methods based on use of said bioanalytical reagent” (priority 2000, published 2005).

Assay [1] has as its target T1, 5HT3A receptor (Mus musculus, UniProt P23979).
T1 construct: Transient expression of the full wild-type receptor was achieved by co-transfection; expressed in transfected cells; host or cells: HEK293
T1 sequence (P23979 24-489): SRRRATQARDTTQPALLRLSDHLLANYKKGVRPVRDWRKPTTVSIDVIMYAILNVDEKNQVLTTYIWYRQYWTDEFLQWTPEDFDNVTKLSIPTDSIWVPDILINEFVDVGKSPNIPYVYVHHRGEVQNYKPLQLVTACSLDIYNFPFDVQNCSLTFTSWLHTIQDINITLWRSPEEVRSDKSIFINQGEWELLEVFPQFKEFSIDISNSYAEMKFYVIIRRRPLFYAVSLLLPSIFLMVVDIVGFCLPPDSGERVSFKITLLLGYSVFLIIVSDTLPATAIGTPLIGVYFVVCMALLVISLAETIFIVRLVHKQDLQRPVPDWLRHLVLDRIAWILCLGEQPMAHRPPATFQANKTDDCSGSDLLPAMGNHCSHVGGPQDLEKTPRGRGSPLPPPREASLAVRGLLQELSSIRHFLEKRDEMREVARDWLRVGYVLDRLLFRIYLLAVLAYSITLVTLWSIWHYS
The assay is described as follows: competitive radiological binding assay with [3H]-GR65630, receptor in "native" vesicles in solution. The protocol:
To this end, samples of said reagent were incubated with the vesicles in solution for 60 minutes at room temperature with 1.5 nM of the tritium-labeled ligand [^3H]-GR65630 in 240 μl HEPES buffer (10 mM HEPES, pH 7.4) (HEPES: 4-(2-hydroxyethyl)piperazine-1-ethanesulfonic acid) in 96-well MultiScreen plates (Millipore, F-Molsheim). The incubation was completed by rapid filtration followed by washing 3 times with 300 μl of ice-cold HEPES buffer each time. The filters were transferred to scintillation vessels and each taken up in 1 ml of Ultima Gold TM (Packard, meridan, USA). The radioactivity was measured using a TriCarb 2200CA liquid scintillation counter. The extent of nonspecific binding to the receptor and to the vesicles was estimated in the presence of a high surplus of quipazine (1 μM). The dissociation constant Kd was determined from Scatchard plots in 6 different concentrations of the ligand [^3H]-GR65630. […] All experiments were carried out in duplicate.

Assay [2] concerns the target T1, 5HT3A receptor. Briefly: competitive radiological binding assay with [3H]-GR65630, receptor in whole mother cells.
The target in assay [3] is T2, 5HT3A serotonin receptor (Mus musculus, UniProt P23979).
T2 construct: expressed in transfected cells; host or cells: HEK cells
T2 sequence (P23979 24-489): T1 sequence (P23979 24-489)
Briefly: agonist-induced calcium signal (Fluo-3) in "native" vesicles with incorporated 5HT3A receptor. As to conditions: 350 μM agonist; Fluo-3 loaded vesicles. It counts as cell-based. On the procedure:
In this case, the original HEK cells from which the vesicles were obtained following the addition of cytochalasin according to the method described hereinabove were loaded with the acetoxymethyl ester of Fluo-3 as calcium indicator (generally 20 μg Fluo-3 in 500 μl DMEM/F12 medium). The prepared vesicles contained said fluorescent calcium indicator and parts of the endoplasmic reticulum in addition to the 5HT3A receptor.
Fluorescence excitation of the Fluo-3 was performed at 488 nm. The emission was measured at 500-530 nm. The vesicles loaded with Fluo-3 were then stimulated with 350 μM m-chlorophenylbiguanide hydrochloride (mCPG), a receptor-specific agonist. Stimulation was performed by addition of the agonist to the vesicle medium (t=0 sec). The maximum fluorescence signal that occurred through binding of the calcium to the calcium indicator Fluo-3 was already measured less than one minute after addition of the agonist. The value amounted to 35 μM free calcium ions in the vesicle interior, i.e. in the cytosol surrounded by the vesicle. With the aid of calcium indicator Fluo-3, free calcium ions are detected only in the cytosol (vesicle lumen) transferred from the cell of origin. Calcium ions in the endoplasmic reticulum or in other cell organelles or parts of cell organelles possibly included in the vesicle are not determined by this detection method.
The increase in the fluorescence signal up to its maximum value after less than one minute and the subsequent decrease in the fluorescence signal to its baseline value after a further 2 minutes, i.e. after a total of 3 minutes following addition of the agonist, is a sign of the intact functional capacity of the complete mechanism of the signal transduction cascade within the vesicle, i.e. of the ability of the vesicle to “buffer” the concentration of free calcium ions. This includes the action of sodium-calcium exchangers, in addition to the timespan until closure of the receptor's ion channel and desensitization mechanisms characteristic of serotonin.

The target of assay [4] is T1, 5HT3A receptor. The assay is described as follows: fluorescent ligand binding to surface-immobilized "native" vesicles (confocal fluorescence microscopy). As to conditions: individual discrete immobilized vesicles (n=3) from HEK293 cells; fit with Langmuir isotherm; read-out: dissociation constant Kd. The protocol: The ligand-binding experiments in surface-immobilized vesicles were carried out using the fluorescence-labeled ligand GR-Cy5. For these experiments, a homologous serotonin receptor construct 5HT3A was used that was expressed with an EGFP (Enhanced Green Fluorescent Protein, Clontech) fused at the end of a subunit. The prepared “native” vesicles were immobilized on cover glasses by means of physical adsorption of the vesicles to the glasses, by two-hour or overnight incubation of typically 400 μl of a vesicle preparation solution prepared according to the above method in 6-well plates with cover glasses on the bottom at 4° C. […]
The affinity of the fluorescent ligand for receptors bound to individual, discrete vesicles was determined by sequential addition of ascending concentrations of the fluorescent ligand to one and the same cover glass with vesicles immobilized thereon by overnight incubation. […]
The fluorescence intensities of the ligand were measured with a confocal fluorescence microscope (Zeiss, Laser Scanning Microscope LSM510), using a suitable filter set. The fluorescence signal of the GFP additionally incorporated into the vesicles was used in each case to adjust the microscope to the working distance of the plane in which the vesicles lay before the ligand was added. […]

Where [5] appears, read: vesicles from HEK293 cells in solution, competition with 1.5 nM [3H]-GR65630, 60 min, room temperature.
[6] abbreviates: HEK293 mother cells, competition with 1.5 nM [3H]-GR65630, 60 min, room temperature.
Where [7] appears, read: vesicles from HEK293 cells in solution, competition with 1.5 nM [3H]-GR65630, 60 min, room temperature, read-out: pKi, receptor in "native" vesicles (converted).
Setting [8] is: HEK293 mother cells, competition with 1.5 nM [3H]-GR65630, 60 min, room temperature, read-out: pKi, receptor in mother cell (converted).

With `Cc1nccn1CC1CCc2c(c3ccccc3n2C)C1=O` (stereo not shown) [Ondansetron, 1,2,3,9-tetrahydro-9-methyl-3-[(2-methyl-1H-imidazol-1-yl)methyl]-4H-carbazol-4-one], the Ki in assay [1] is 2.51 nM; in assay [2] it was 3.16 nM.

In the case of `N=C(N)NC(=N)Nc1cccc(Cl)c1` [mCPBG, m-Chlorophenylbiguanide], the “pKi, receptor in "native" vesicles” value in assay [1] (setting [5]) was 8.3 ± 0.1. Moreover, the “pKi, receptor in mother cell” value in assay [2] (setting [6]) stood at 8.2 ± 0.1.

On to `Cl.N=C(N)NC(=N)Nc1cccc(Cl)c1` [mCPG, m-chlorophenylbiguanide hydrochloride], for which, in assay [3], the “free calcium ions in the vesicle interior at maximum fluorescence signal” value is 35 µM, the “time to maximum fluorescence signal after addition of the agonist” value is recorded as “less than one” and the “total time until decrease of fluorescence signal to baseline value after addition of the agonist” value was determined as 3 min.

With `Cc1[nH]cnc1CC1CCc2c(c3ccccc3n2CCCN)C1=O` (stereo not shown) [GR-H], the results for the Ki in assay [1] and in assay [2] were 0.2 nM and 0.0631 nM, respectively.

The Kd is the constant that tells how readily two partners part at equilibrium. Turning to “1,2,3,9-tetrahydro-3-[(5-methyl-1H-imidazol-4-yl)methyl]-9-(3-amino-(N-rhodamineB-thiocarbamoyl)-propyl)-4H-carbazol-4-one [GR-Rho]”, the Kd in assay [4] is 4.2 nM.

Consider `Cc1[nH]cnc1CCC(=O)c1cn(C)c2ccccc12` [[^3H]-GR65630], for which the “pKi, receptor in "native" vesicles” value in assay [1] (setting [5]) was 9.4 ± 0.1. Moreover, the “pKi, receptor in mother cell” value in assay [2] (setting [6]) is on record as 9.0 ± 0.1.

On to `N=C(N)NC(=N)Nc1ccccc1` [PBG, Phenylbiguanide], for which the Ki is 251 nM in assay [1] (setting [7]) and 316 nM in assay [2] (setting [8]).

With `c1ccc2nc(N3CCNCC3)ccc2c1` [Quipazine, 2-(1-Piperazinyl)quinoline], the Ki in assay [1] (setting [7]) was 0.398 nM; in assay [2] (setting [8]), 0.501 nM.
